Experimental data: patent publication US20020103380A1, “Thiourea and urea liquid-phase combinatorial libraries: synthesis and apoptosis induction” (Parker Hughes Institute, priority 1999, published 2002)
In brackets after ≈: the same amount, converted by molar mass. Blank lines part the entries; values can stand above or below the compound they belong to.

Experiments:
[1] = compound stability remark in Table 1; assay type: physicochemical
human tumor cell lines = assay: MTT assays, cell line not given; assay type: cell-based; conditions: cell line not stated; for relative cytotoxic / biological activity: MTT; for IC50: Homo sapiens
Method: (§1) The cytotoxicity assay of various CL2 compounds against human tumor cell lines was performed using the MTT (3-[4,5-dimethylthiazol-2-yl]-2,5-diphenyl tetrazolium bromide) assay (Boehringer Mannheim Corp., Indianapolis, Ind.). Briefly, exponentially growing tumor cells were seeded into a 96-well plate at a density of 2.5×10^4 cells/well and incubated for 36 hours at 37° C. prior to compound exposure. On the day of treatment, culture medium was carefully aspirated from the wells and replaced with fresh medium containing the CL2 compounds at concentrations ranging from 0.0 to 100 μM. Triplicate wells were used for each treatment.
(§2) Human cell lines were obtained from American Type Culture Collection (Rockville, Md.) and maintained as a continuous cell line in Dulbecco's modified Eagles' medium supplemented with 10% fetal bovine serum and antibiotics. Cells used in this study include human leukemia cells (NALM-6 and MOLT-3).
(§3) The cells were incubated with the various compounds for 24-36 hours at 37° C. in a humidified 5% CO2 atmosphere. To each well, 10 μl of MTT (0.5 mg/ml final concentration) was added and the plates were incubated at 37° C. for 4 hours to allow MTT to form formazan crystals by reacting with metabolically active cells. The formazan crystals were solubilized overnight at 37° C. in a solution containing 10% SDS in 0.01 M HCl. The absorbance of each well was measured in a microplate reader (Labsystems) at 540 nm and a reference wavelength of 690 nm. To translate the OD540 values into the number of live cells in each well, the OD540 values were compared to those on standard OD540-versus-cell number curves generated for each cell line. The percent survival was calculated using the formula:
(§4) % Survival=live cell number [test]/live cell number [control]×100
(§5) The IC50 values were calculated by non-linear regression analysis.

[2] = system: NALM-6 human leukemia cells; assay: MTT cytotoxicity assay, NALM-6; assay type: cell-based; conditions: for ED50 Nalm6: Table 4, individual lead compounds; for relative cytotoxic activity: ranking among the 21 individual compounds, Nalm6, MTT
Method: Stage (4): deconvolution and re-synthesis were guided by an iterative screening procedure during which the cytotoxic anti-cancer activities of the individual sub-libraries were measured against the human leukemia cell lines NALM-6 and MOLT-3 using MTT assays. […] However, this is not always true when even-splitting was not possible or some special consideration. […] Another special example is the small 10-member sublibrary CL2.
as §1, §2, §3, §4, §5

stability (remark in place of IC50) [1]: unstable compound
Structure (SMILES): Fc1ccc(CCNC(=S)NCCc2ccc(F)cc2)cc1 [CL2j]

Structure (SMILES): Fc1ccc(CCNC(=S)NCCc2ccc(Cl)cc2Cl)cc1 [CL10b]
relative cytotoxic / biological activity (human tumor cell lines): most active

Structure (SMILES): COc1ccc(OC)c(CCNC(=S)NCCc2ccccc2OC)c1 [CL12a]
relative cytotoxic / biological activity (human tumor cell lines): most active

Structure (SMILES): COc1ccccc1CCNC(=S)NCCc1ccc(Cl)cc1Cl [CL12b]
relative cytotoxic / biological activity (human tumor cell lines): most active

Structure (SMILES): CC(NC(=S)NC(C)c1ccccc1)c1ccccc1 (stereo not drawn) [Compound L34A2A2]
ED50 Nalm6 [2]: 50 µg/mL (≈ 176 µM)

Structure (SMILES): CC(NC(=S)NC(c1ccccc1)c1ccccc1)c1ccccc1 (stereo not drawn) [Compound L34A2A3]
ED50 Nalm6 [2]: 50 µg/mL (≈ 144 µM)

Structure (SMILES): CC(NC(=S)NC(c1ccccc1)(c1ccccc1)c1ccccc1)c1ccccc1 (stereo not drawn) [Compound L34A2A4]
ED50 Nalm6 [2]: 50 µg/mL (≈ 118 µM)

Structure (SMILES): S=C(NC(c1ccccc1)c1ccccc1)NC(c1ccccc1)c1ccccc1 [Compound L34A3A3]
ED50 Nalm6 [2]: >100 µg/mL

IC50 (human tumor cell lines): < 10 µg/mL
Structure (SMILES): S=C(NC(Cc1ccccc1)c1ccccc1)NC(c1ccccc1)c1ccccc1 (stereo not drawn) [Compound L34A3A5, 1-(1,2-Diphenylethyl)-3-(diphenylmethyl)-2-thiourea]
ED50 Nalm6 [2]: <10 µg/mL
relative cytotoxic activity [2]: most active

Structure (SMILES): S=C(NC(c1ccccc1)(c1ccccc1)c1ccccc1)NC(c1ccccc1)(c1ccccc1)c1ccccc1 [Compound L34A4A4]
ED50 Nalm6 [2]: 30 µg/mL (≈ 53.5 µM)

IC50 (human tumor cell lines): < 10 µg/mL
Structure (SMILES): S=C(NC(Cc1ccccc1)c1ccccc1)NC(Cc1ccccc1)c1ccccc1 (stereo not drawn) [Compound L34A5A5, 1,3-Bis(1,2-diphenylethyl)-2-thiourea]
ED50 Nalm6 [2]: <10 µg/mL
relative cytotoxic activity [2]: most active
